Read-outs that look alike come from different tables or passages of the source.
What was measured:
Type in all cases: cell-based
Caki-2 cells = assay: CTG (CellTiter-Glo) cell viability assay, Caki-2; conditions: Caki-2, 3-day, read-out: CTG Chempartner/PHA- Caki-2 3-day: Average external-IC50
In short: (§1)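 Cells seeded at 10,000 per well, then exposed to a 9-point 1:3 dilution series from 10 µM top concentration (0.2% DMSO) for 3 days at 37 °C, 5% CO2. Viability measured by CellTiter-Glo luminescence; IC50 from a three-parameter logistic fit.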

MOLT-4 cells = assay: CTG (CellTiter-Glo) cell viability assay, MOLT-4; conditions: MOLT-4, 3 day, read-out: CTG Cell Viability Assay - MOLT-4 3 day: Average external-IC50
In short: as §1

BCL-XL = molecular target: T1, BCL-XL (Homo sapiens, UniProt Q07817); assay: BCL-XL degradation assay in MOLT-4 cells (ELISA, 6 h); conditions: for DC50: read-out: Bcl-xL ELISA in MOLT-4 degradation 6 h: External Abs-DC50
T1 construct: BCL-XL degradation results in MOLT-4 cells for compounds of the invention; endogenous in cells; host or cells: MOLT-4
T1 sequence (Q07817 whole entry): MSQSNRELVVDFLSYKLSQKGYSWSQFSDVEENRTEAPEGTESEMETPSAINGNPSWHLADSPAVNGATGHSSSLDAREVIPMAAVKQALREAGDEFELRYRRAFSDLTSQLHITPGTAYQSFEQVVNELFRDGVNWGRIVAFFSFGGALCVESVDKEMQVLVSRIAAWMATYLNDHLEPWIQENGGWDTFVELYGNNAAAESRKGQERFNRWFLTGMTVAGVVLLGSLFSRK

SMILES	IC50 (Caki-2 cells; Homo sapiens, CAKI-2, 72 h) [nM]	IC50 (MOLT-4 cells; Homo sapiens, MOLT-4, 72 h) [nM]	Dmax (BCL-XL) [%]	DC50 (BCL-XL) [nM]	IC50 (Caki-2 cells) [nM]	IC50 (MOLT-4 cells) [nM]	Bcl-xL ELISA in MOLT-4 degradation 6 h: Dmax % (BCL-XL)
Cc1ncsc1-c1ccc(CNC(=O)[C@@H]2C[C@@H](O)CN2C(=O)[C@@H](NC(=O)C2(F)CC2)C(C)(C)C)c(OCCN2CCN(CC[C@H](CSc3ccccc3)Nc3ccc(S(=O)(=O)NC(=O)c4ccc(N5CCC6(CC5)CC(N5CCC[C@H]5c5ccccc5C5CC5)C6)cc4)cc3S(=O)(=O)C(F)(F)F)CC2)c1 [I-31, (2S,4R)—N-(2-(2-(4-((R)-3-((4-(N-(4-(2-((S)-2-(2-cyclopropylphenyl)pyrolidine-1-yl)-7-azaspiro[3.5]nonan-7-yl)benzoyl)sulfamoyl)-2-((trifluoromethyl)sulfonyl)phenyl)amino)-4-(phenylthio)butyl)piperazin-1-yl)ethoxy)-4 (4-methylthiazol-5-yl)benzyl)-1-((S)-2-(1-fluorocyclopropanecarboxamido)-3,3-dimethylbutanoyl)-4-hydroxypyrrolidine-2-carboxamide]	< 5000	100 to 1000	50 to 75	10 to 100			
Cc1ncsc1-c1ccc([C@H](C)NC(=O)[C@@H]2C[C@@H](O)CN2C(=O)[C@@H](NC(=O)CCCCCCN(C)CC[C@H](CSc2ccccc2)Nc2ccc(S(=O)(=O)NC(=O)c3ccc(N4CCC([C@@H](O)c5ccccc5-c5ccc(Cl)cc5)CC4)cc3)cc2S(=O)(=O)C(F)(F)F)C(C)(C)C)cc1 [I-108]	> 30000	< 100	50 to 75	10 to 100			
Cc1ncsc1-c1ccc([C@H](C)NC(=O)[C@@H]2C[C@@H](O)CN2C(=O)[C@@H](NC(=O)CCCCCC(=O)N2CCC(NCC[C@H](CSc3ccccc3)Nc3ccc(S(=O)(=O)NC(=O)c4ccc(N5CCN([C@@H](O)c6ccccc6-c6ccc(Cl)cc6)CC5)cc4)cc3S(=O)(=O)C(F)(F)F)CC2)C(C)(C)C)cc1 [I-127]	> 30000	> 3000	50 to 75	500 to 1000			
Cc1ncsc1-c1ccc([C@H](C)NC(=O)[C@@H]2C[C@@H](O)CN2C(=O)[C@@H](NC(=O)CCCCCC(=O)N2CCN(CC[C@H](CSc3ccccc3)Nc3ccc(S(=O)(=O)NC(=O)c4ccc(N5CC6CCC5C6)cc4)cc3S(=O)(=O)C(F)(F)F)CC2)C(C)(C)C)cc1 (stereo partly shown) [I-40]	> 30000	> 3000	50 to 75	500 to 1000			
C#Cc1ccc([C@H](CO)NC(=O)[C@@H]2C[C@@H](O)CN2C(=O)[C@@H](NC(=O)CCCCCC(=O)N2CCN(CCCNc3ccc(S(=O)(=O)NC(=O)c4ccc(N5CCN(CC6=C(c7ccc(Cl)cc7)CC(C)(C)CC6)CC5)cc4Oc4cnc5[nH]ccc5c4)cc3S(=O)(=O)C(F)(F)F)CC2)C(C)(C)C)cc1 [I-102]	> 30000	< 100	> 75	< 10			
Cc1ncsc1-c1ccc(CNC(=O)[C@@H]2C[C@@H](O)CN2C(=O)[C@@H](NC(=O)CCCCCC(=O)N2CC3(CN(CC[C@H](CSc4ccccc4)Nc4ccc(S(=O)(=O)NC(=O)c5ccc(N6CCN([C@@H](O)c7ccccc7-c7ccc(Cl)cc7)CC6)cc5)cc4S(=O)(=O)C(F)(F)F)C3)C2)C(C)(C)C)cc1 [I-125]	> 30000	100 to 1000	50 to 75	10 to 100			
Cc1ncsc1-c1ccc([C@H](C)NC(=O)[C@@H]2C[C@@H](O)CN2C(=O)[C@@H](NC(=O)CCCCCC(=O)N2CCCN(CC[C@H](CSc3ccccc3)Nc3ccc(S(=O)(=O)NC(=O)c4ccc(N5CCN([C@@H](O)c6ccccc6-c6ccc(Cl)cc6)CC5)cc4)cc3S(=O)(=O)C(F)(F)F)CC2)C(C)(C)C)cc1 [I-124]	10000 to 30000	< 100	50 to 75	< 10			
Cc1ncsc1-c1ccc([C@H](C)NC(=O)[C@@H]2C[C@@H](O)CN2C(=O)[C@@H](NC(=O)CCCCCN(C)CCCNc2ccc(S(=O)(=O)NC(=O)c3ccc(N4CCC([C@H](O)c5ccccc5-c5ccc(Cl)cc5)CC4)cc3Oc3cnc4[nH]ccc4c3)cc2S(=O)(=O)C(F)(F)F)C(C)(C)C)cc1 [I-67]	> 30000	> 3000	50 to 75	500 to 1000			
Cc1ncsc1-c1ccc([C@H](C)NC(=O)[C@@H]2C[C@@H](O)CN2C(=O)[C@@H](NC(=O)CCCCCCC(=O)N2CCN(Cc3ccc(-c4ccc(Cl)cc4)c([C@H](O)C4CCN(c5ccc(C(=O)NS(=O)(=O)c6ccc(N[C@H](CCN(C)CCO)CSc7ccccc7)c(S(=O)(=O)C(F)(F)F)c6)cc5)CC4)c3)CC2)C(C)(C)C)cc1 [I-25]	> 30000	100 to 1000	> 75	10 to 100			
Cc1ncsc1-c1ccc([C@H](C)NC(=O)[C@@H]2C[C@@H](O)CN2C(=O)[C@@H](NC(=O)CCCCCC(=O)N2CCN(c3ccc(-c4ccc(Cl)cc4)c([C@H](O)C4CCN(c5ccc(C(=O)NS(=O)(=O)c6ccc(N[C@H](CCN(C)CCO)CSc7ccccc7)c(S(=O)(=O)C(F)(F)F)c6)cc5)CC4)c3)CC2)C(C)(C)C)cc1 (single isomer, unassigned) [I-113]	> 30000	100 to 1000	> 75	< 10			
Cc1ncsc1-c1ccc([C@H](C)NC(=O)[C@@H]2C[C@@H](O)CN2C(=O)[C@@H](NC(=O)CCCCCCN(C)CC[C@H](CSc2ccccc2)Nc2ccc(S(=O)(=O)NC(=O)c3ccc(N4CCN(Cc5ccccc5-c5ccc(Cl)cc5)CC4)cc3)cc2[N+](=O)[O-])C(C)(C)C)cc1 [I-14]	> 30000	> 3000	< 50	500 to 1000			
Cc1ncsc1-c1ccc([C@H](C)NC(=O)[C@@H]2C[C@@H](O)CN2C(=O)[C@@H](NC(=O)CCCCCC(=O)N2CCN(CC[C@H](CSc3ccccc3)Nc3ccc(S(=O)(=O)NC(=O)c4ccc(N5CCOCC5)cc4)cc3S(=O)(=O)C(F)(F)F)CC2)C(C)(C)C)cc1 [I-36]	> 30000	> 3000	< 50	500 to 1000			
Cc1ncsc1-c1ccc(CNC(=O)[C@@H]2C[C@@H](O)CN2C(=O)[C@@H](NC(=O)CCCCCCC(=O)N2CCN(C[C@]3(C)CCC(c4ccc(Cl)cc4)=C(CN4CCN(c5ccc(C(=O)NS(=O)(=O)c6ccc(NCCCN7CCOCC7)c(S(=O)(=O)C(F)(F)F)c6)c(Oc6cnc7[nH]ccc7c6)c5)CC4)C3)CC2)C(C)(C)C)cc1 [I-134]				500 to 1000	< 5000	100 to 1000	C (C (<50%))
Cc1ncsc1-c1ccc([C@H](C)NC(=O)[C@@H]2C[C@@H](O)CN2C(=O)[C@@H](NC(=O)CCCCCCC(=O)N2CCN(CCCNc3ccc(S(=O)(=O)NC(=O)c4ccc(N5CCN(CC6=C(c7ccc(Cl)cc7)CC(C)(C)CC6)CC5)cc4Oc4cnc5[nH]ccc5c4)cc3S(=O)(=O)C(F)(F)F)CC2)C(C)(C)C)cc1 [I-81]	> 30000	< 100	> 75	10 to 100			
Cc1ncsc1-c1ccc([C@H](C)NC(=O)[C@@H]2C[C@@H](O)CN2C(=O)[C@@H](NC(=O)CCCCCCCC(=O)N2CCN(CCCNc3ccc(S(=O)(=O)NC(=O)c4ccc(N5CCN(CC6=C(c7ccc(Cl)cc7)CC(C)(C)CC6)CC5)cc4Oc4cnc5[nH]ccc5c4)cc3S(=O)(=O)C(F)(F)F)CC2)C(C)(C)C)cc1 [I-86]	> 30000	100 to 1000	50 to 75	10 to 100			
Cc1ncsc1-c1ccc([C@H](C)NC(=O)[C@@H]2C[C@@H](O)CN2C(=O)[C@@H](NC(=O)CCCCC(=O)N2CCN(CCCNc3ccc(S(=O)(=O)NC(=O)c4ccc(N5CCN(CC6=C(c7ccc(Cl)cc7)CC(C)(C)CC6)CC5)cc4Oc4cnc5[nH]ccc5c4)cc3S(=O)(=O)C(F)(F)F)CC2)C(C)(C)C)cc1 [I-63]	> 30000	1000 to 3000	50 to 75	100 to 500			

Source: patent US20260092057A1, “BCL-XL/BCL-2 DEGRADERS AND USES THEREOF” (Kymera Therapeutics, Inc., priority 2022, published 2026)
